Measured values reported in patent US5055476A, “3-(1,2-benzisoxazol-3-yl)-4-pyridinamines and derivatives” (Hoechst-Roussel Pharmaceuticals Incorporated, priority 1990, dated 1991).

Experiments:
[1] = test system: phenyl-para-quinone writhing; test: phenyl-para-quinone writhing assay in mice (analgesia); format: in vivo
Description: The compounds of the present invention are useful as analgesic agents. […] Exptl. Biol. Med., 95, 729 (1957)].

[2] = test system: Scopolamine Induced Memory Deficit; test: Dark Avoidance Assay (reversal of scopolamine induced memory deficit); format: in vivo; conditions: mice
Experimental: In this assay, mice are tested for their ability to remember an unpleasant stimulus for a period of 24 hours. A mouse is placed in a chamber that contains a dark compartment; a strong incandescent light drives it to the dark compartment, where an electric shock is administered through metal plates on the floor. The animal is removed from the testing apparatus and tested again, 24 hours later, for the ability to remember the electric shock.

[3] = test system: ear edema induced by topical application of TPA; test: TPA-Induced Ear Edema (TPAEE); format: in vivo, Female Swiss Webster mice; conditions: for TPAEE (change in TPA-induced ear edema): 10 μg/ear topical, TPA 10 μg/ear, five hours
Experimental: The purpose of this assay was to determine the ability of a topically-applied compound to prevent ear edema induced by topical application of TPA (phorbol 12-myristate acetate). Female Swiss Webster mice topically received TPA (10 μg/ear) on the right ear and vehicle on the left ear. The test compound (10 μg/ear) was applied to both ears. After five hours, the animals were sacrificed and an ear punch (4 mm) was taken from each ear. The difference in right and left ear punch weights for each animal was determined to assess activity. […] See Young, J. M. et al., J. Invest. Dermatol., 80 (1983), pp. 48-52.

Nc1ccncc1-c1noc2ccccc12.O=C(O)/C=C\C(=O)O [3-(1,2-Benzisoxazol-3-yl)-4-pyridinamine maleate]
% Inhibition of Writhing ([1]; 20 mg/kg of body wt. s.c., mice): 40%
% of Animals with Scopolamine Induced Memory Deficit Reversal ([2]; 1.0 mg/kg s.c., 24 hours): 21%
% of Animals with Scopolamine Induced Memory Deficit Reversal ([2]; 10.0 mg/kg s.c., 24 hours): 33%
TPAEE (change in TPA-induced ear edema) [3]: -29%

CC(C)(C)C(=O)Nc1ccncc1-c1noc2ccccc12 [N-[3-(1,2-Benzisoxazol-3-yl)-4-pyridinyl]-2,2-dimethylpropanamide]
% of Animals with Scopolamine Induced Memory Deficit Reversal ([2]; 3.0 mg/kg s.c., 24 hours): 20%
TPAEE (change in TPA-induced ear edema) [3]: -23%

CNC(=O)Oc1ccc2c(c1)[C@]1(C)CCN(C)[C@@H]1N2C [Physostigmine, reference compound]
% of Animals with Scopolamine Induced Memory Deficit Reversal ([2]; 0.31 mg/kg s.c., 24 hours (reference)): 20%

CCC(=O)O[C@](Cc1ccccc1)(c1ccccc1)[C@H](C)CN(C)C [Propoxyphene, reference compound]
% Inhibition of Writhing ([1]; 3.9 mg/kg of body wt. s.c., mice (standard)): 50%

C[C@]12CCC(=O)C=C1CC[C@@H]1[C@@H]2[C@@H](O)C[C@@]2(C)[C@H]1CC[C@]2(O)C(=O)CO [hydrocortisone, reference compound]
ED50 (TPA-induced ear edema) ([3]; standard, topical, mice): 47 μg/ear
